Consider 7 compounds from BindingDB's records for doi:10.1016/j.bmcl.2008.12.062 (Bristol-Myers Squibb, 2009).

Molecules are shown by their SMILES.

This assay is described as follows: Antagonist activity at CCR2 in human PBMCs assessed as inhibition of MCP1-induced chemotaxis.
One may read the IC50 as the concentration that gives 50% inhibition. `CSc1ccc(C(=O)NC2CC(N)CCC2NC(=O)CNC(=O)c2cc(C(F)(F)F)ccc2N)cc1` (racemic) [(+/-)-2-amino-N-(2-(4-amino-2-(4-(methylthio)benzamido)cyclohexylamino)-2-oxoethyl)-5-(trifluoromethyl)benzamide]: the half-maximal inhibitory concentration (IC50) is 13.5 nM. As to `CC(=O)Nc1ccc(CNC2CC(N(C)C)CCC2NC(=O)CNC(=O)c2cccc(C(F)(F)F)c2)cc1` (racemic) [(+/-)-N-(2-(2-(4-acetamidobenzylamino)-4-(dimethylamino)cyclohexylamino)-2-oxoethyl)-3-(trifluoromethyl)benzamide], the IC50 is 17.4 nM. For the compound `CN(C)C1CCC(NC(=O)CNC(=O)c2cccc(C(F)(F)F)c2)C(NCc2ccc3[nH]ccc3c2)C1` (racemic) [(+/-)-N-(2-(2-((1H-indol-5-yl)methylamino)-4-(dimethylamino)cyclohexylamino)-2-oxoethyl)-3-(trifluoromethyl)benzamide], the 50% inhibitory concentration (IC50) is 23 nM. In the case of `CSc1ccc(CNC2CC(N(C)C)CCC2NC(=O)CNC(=O)c2cccc(C(F)(F)F)c2)cc1` (racemic) [(+/-)-N-(2-(4-(dimethylamino)-2-(4-(methylthio)benzylamino)cyclohexylamino)-2-oxoethyl)-3-(trifluoromethyl)benzamide], the IC50 was determined as 22.5 nM. `COc1ccc(CNC2CC(N(C)C)CCC2NC(=O)CNC(=O)c2cccc(C(F)(F)F)c2)cc1` (racemic) [(+/-)-N-(2-(4-(dimethylamino)-2-(4-methoxybenzylamino)cyclohexylamino)-2-oxoethyl)-3-(trifluoromethyl)benzamide]: the half-maximal inhibitory concentration (IC50) was 41.4 nM.

For `Cc1ccc(CNC2CC(N(C)C)CCC2NC(=O)CNC(=O)c2cccc(C(F)(F)F)c2)cc1` (racemic) [(+/-)-N-(2-(4-(dimethylamino)-2-(4-methylbenzylamino)cyclohexylamino)-2-oxoethyl)-3-(trifluoromethyl)benzamide], the half-inhibitory concentration (IC50) turned out to be 12.6 nM. In the case of `CSc1ccc(C(=O)NC2CC(NC(=O)OCc3ccccc3)CCC2NC(=O)CNC(=O)c2cccc(C(F)(F)F)c2)cc1` (racemic) [(+/-)-benzyl3-(4-(methylthio)benzamido)-4-(2-(3-(trifluoromethyl)benzamido)acetamido)cyclohexylcarbamate] it was 5.1 nM.
